Among the test systems are A498 renal; SK-MEL-28 melanoma; CAKI-1 renal; LOX IMVI melanoma; OVCAR-3 ovarian; SF-295 CNS; NCI-H522 lung; NCI-H460 lung; SF-268 CNS; HCT-116 colon.
Common to all, as to assay: NCI tumour cell line growth inhibition, 48 h

“And” between values parts separate entries of the source, which are not always exact repeats. Equal values may be shown once.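 All cell lines were grown in 96-well plates and treated with compound for 48 hours. GI50: concentration for 50% inhibition of growth. The concentration for full growth arrest is given as TGI.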

Take `COc1c(C)n(CCO)ccc1=O`: the TGI in the assay with A498 renal, with SK-MEL-28 melanoma, in the assay with CAKI-1 renal, with LOX IMVI melanoma, with OVCAR-3 ovarian and with SF-295 CNS was greater than 100 µM throughout. Moreover, the TGI in the assay with NCI-H522 lung, in the assay on NCI-H460 lung, in the assay on SF-268 CNS and with HCT-116 colon was greater than 100 µM each time.
Consider `CC1CC(O)C(=O)C(O[C@@H]2C[C@@H]3CC[C@@H]4[C@H](CC[C@]5(C)C(C6=CC(=O)OC6)CC[C@]45O)[C@@]3(C=O)C[C@H]2O)O1` (some centres not stated), for which the TGI in the assay with A498 renal is 0.232 µM; in the assay on SK-MEL-28 melanoma it was 0.329 µM; with CAKI-1 renal it was 0.0597 µM; in the assay with LOX IMVI melanoma, 0.0681 µM; with OVCAR-3 ovarian, 0.0346 µM; in the assay with SF-295 CNS, 0.149 µM. In addition, the TGI in the assay on NCI-H522 lung is less than 0.0274 µM; in the assay on NCI-H460 lung, 0.0414 µM; in the assay on SF-268 CNS, 0.146 µM; in the assay on HCT-116 colon, 0.0511 µM.
Regarding `N[C@H](CCC(=O)N[C@@H](Cc1c[nH]c2ccccc12)C(=O)O)C(=O)O`, the GI50 in the assay on A498 renal was greater than 100 µM; in the assay on SK-MEL-28 melanoma, greater than 100000 nM; with CAKI-1 renal it was greater than 100 µM; with LOX IMVI melanoma, greater than 100 µM; in the assay with OVCAR-3 ovarian, greater than 100000 nM; in the assay with SF-295 CNS, greater than 100000 nM. Moreover, the GI50 in the assay with NCI-H522 lung was greater than 100000 nM; with NCI-H460 lung, greater than 100000 nM; with SF-268 CNS, greater than 100 µM; with HCT-116 colon it was greater than 100000 nM. Besides, the TGI in the assay on A498 renal, in the assay with SK-MEL-28 melanoma, with CAKI-1 renal, with LOX IMVI melanoma, with OVCAR-3 ovarian and with SF-295 CNS was greater than 100 µM each time. Moreover, the TGI with NCI-H522 lung, in the assay with NCI-H460 lung, in the assay with SF-268 CNS and in the assay on HCT-116 colon was greater than 100 µM throughout.
With `O=C(Nc1cc(Nc2ncccc2-c2ncnc3nc[nH]c23)ccc1F)c1cc(C(F)(F)F)cc(C(F)(F)F)c1`, the GI50 in the assay on A498 renal is 0.648 µM; in the assay on SK-MEL-28 melanoma, 340 nM; with LOX IMVI melanoma, 0.384 µM; in the assay with OVCAR-3 ovarian, 2670 nM; in the assay with SF-295 CNS, 1730 nM; in the assay with NCI-H522 lung it was 2380 nM. For the same molecule, the GI50 with NCI-H460 lung is 1980 nM; with SF-268 CNS it was 3.17 µM; with HCT-116 colon, 601 nM. Besides, the TGI with A498 renal is 3.92 µM; with SK-MEL-28 melanoma, 1.68 µM; in the assay on LOX IMVI melanoma, 2.02 µM; in the assay with OVCAR-3 ovarian, 6.69 µM; in the assay with SF-295 CNS, 4.01 µM; in the assay with NCI-H522 lung, greater than 10 µM. For the same molecule, the TGI is 5.31 µM in the assay with NCI-H460 lung, greater than 10 µM in the assay on SF-268 CNS and 2.72 µM in the assay on HCT-116 colon.
With `CN(C)C(=S)SSC(=S)N(C)C`, the GI50 was 15.1 µM in the assay with A498 renal; 17800 nM in the assay with SK-MEL-28 melanoma; 15.9 µM and 61.5 µM and 21.1 µM in the assay with CAKI-1 renal; 14.9 µM and 5.4 µM and 22.7 µM with LOX IMVI melanoma; 365 nM and 324 nM and 1430 nM with NCI-H460 lung; 15 µM and 42.7 µM and 16.1 µM in the assay with SF-268 CNS. The TGI was greater than 100 µM in the assay with A498 renal; 42.4 µM and > 89.9 µM and > 54 µM in the assay on SK-MEL-28 melanoma; 31.4 µM and > 100 µM and 40.1 µM with CAKI-1 renal; 28.8 µM and 21.4 µM and > 55 µM with LOX IMVI melanoma; 81.9 µM and > 100 µM and 57.1 µM in the assay on SF-295 CNS; 14.7 µM and 10.4 µM and 8.24 µM in the assay with NCI-H522 lung. The TGI was 25.2 µM and 13.6 µM and 53 µM in the assay with NCI-H460 lung; 29 µM and > 100 µM and 32.8 µM in the assay with SF-268 CNS; 28.9 µM and 30.4 µM and > 55.9 µM with HCT-116 colon.
As to `COC(=O)/C([Se]c1c(C)cc(C)cc1C)=C(/[Se]c1c(C)cc(C)cc1C)C(=O)OC`, the TGI in the assay on A498 renal, in the assay on CAKI-1 renal, in the assay on LOX IMVI melanoma, in the assay on OVCAR-3 ovarian, in the assay on SF-295 CNS and in the assay on NCI-H522 lung was greater than 100 µM each time. Further, the TGI with NCI-H460 lung, with SF-268 CNS and in the assay with HCT-116 colon was greater than 100 µM each time.
Consider `Cc1ccccc1C1=[N+]([O-])c2ccc(Cl)cc2C1=O`, for which the TGI is 71.4 µM in the assay on A498 renal; 35.9 µM in the assay on SK-MEL-28 melanoma; 20.2 µM in the assay with LOX IMVI melanoma; 7.17 µM in the assay with OVCAR-3 ovarian; 29.1 µM with SF-295 CNS; 23.9 µM in the assay with NCI-H522 lung. In addition, the TGI in the assay on NCI-H460 lung worked out at 30.9 µM; in the assay on SF-268 CNS it was 33.1 µM; in the assay with HCT-116 colon, 19.5 µM.
With `CC(C)(C)[Si](C)(C)OC1[C@@H](CNC(=O)NC(=O)CCl)O[C@@H](n2cnc3c(N)ncnc32)[C@H]1O[Si](C)(C)C(C)(C)C` (some centres not stated), the GI50 with A498 renal was 6.21 µM; in the assay on SK-MEL-28 melanoma, 1400 nM; with CAKI-1 renal, 1.33 µM; with LOX IMVI melanoma it was 0.148 µM; in the assay with OVCAR-3 ovarian, 1020 nM; in the assay on NCI-H522 lung, 718 nM. The GI50 in the assay with NCI-H460 lung is 1240 nM; in the assay with SF-268 CNS, 1.06 µM; with HCT-116 colon it was 795 nM. Besides, the TGI was found to be 12.8 µM in the assay with A498 renal; 4.12 µM with SK-MEL-28 melanoma; 3.89 µM with CAKI-1 renal; 0.382 µM in the assay with LOX IMVI melanoma; 1.94 µM with OVCAR-3 ovarian; 1.61 µM with NCI-H522 lung. Moreover, the TGI with NCI-H460 lung came out at 3.21 µM; in the assay with SF-268 CNS, 2.09 µM; in the assay with HCT-116 colon, 1.51 µM.
Regarding `CC(C)CCC[C@@H](C)C1CCC2[C@@H]3CC=C4C[C@@H](C(=O)NCCN(C)C)CC[C@]4(C)C3CC[C@@]21C` (some centres not stated), the TGI in the assay with A498 renal, in the assay on SK-MEL-28 melanoma, with CAKI-1 renal, with LOX IMVI melanoma, with OVCAR-3 ovarian and in the assay with SF-295 CNS was greater than 100 µM each time. The TGI with NCI-H522 lung, with NCI-H460 lung and in the assay with SF-268 CNS was greater than 100 µM each time.
On to `CO[C@H]1Nc2c(ccc(C)c2O)C(=O)N2C=C(/C=C/C(N)=O)C[C@@H]12`, for which the TGI came to 0.495 µM in the assay with A498 renal; 0.0829 µM in the assay on SK-MEL-28 melanoma; 0.211 µM in the assay with CAKI-1 renal; 1.29 µM in the assay on LOX IMVI melanoma; 0.192 µM in the assay on OVCAR-3 ovarian; 1.75 µM in the assay with SF-295 CNS. The results for the TGI in the assay on NCI-H522 lung, in the assay on NCI-H460 lung and in the assay on SF-268 CNS were 0.182 µM, 31.1 µM and 0.411 µM, respectively.
